What was measured:
PAF induced mortality = assay: Prevention of mortality induced by platelet aggregating factor (PAF); format: in vivo, mice (CF1); conditions: PAF 0.10 mg/kg i.v.
Description: (k) Prevention of Mortality Induced by Platelet Aggregating Factor (PAF)
Male CF1 mice weighing 20-30 gms (Carworth Farms Co.) are fed ad libitum.
Racemic 2-[[[2-(acetyloxy)-3-(octadecyloxy)propoxy]hydroxyphosphinyl]oxy]-N,N,N-trimethylethanaminium hydroxide inner salt hemihydrate (PAF) is concentrated in ethanol at a concentration of 1 mg/ml.At the time of experimentation, PAF is diluted in 0.1% BSA (bovine serum albumin) and administered intravenously at a dose of 0.10 mg/kg one hour after 10 mice are dosed with either vehicle (BSA) or drug. Mortality in mice treated with PAF occurs within 30 minutes after i.v. administration.

[1] = tested on: histamine-induced bronchoconstriction; assay: Antagonism of histamine-induced bronchoconstriction in guinea pigs; format: in vivo, guinea pig (Hartley strain); conditions: Cavia porcellus, po, 2 hour pretreatment; read-out: ID50 antagonism of histamine-induced bronchoconstriction
Description: (g) Antagonism of PAF and Histamine-induced Bronchoconstriction in Guinea Pig
Spontaneously breathing male guinea pigs (Hartley strain) weighing 300-450 grams are dosed orally with test drug or control vehicle two hours prior to challenge with agonist. The animals are anesthetized with urethane (2 gm/kg) intraperitoneally and the jugular vein and trachea are cannulated. Two hours after dosing, the animal is paralyzed with succinylcholine (1.2 mg/kg, i.v.) and ventilated (Harvard rodent respirator) at 40 breaths/minutes and 2.5 cc tidal volume. Propranolol (0.1 mg/kg, i.v.) is administered and five minutes thereafter the animal is challenged with a constrictory dose of platelet activating factor (10 μg/kg, i.v.) or histamine dihydrochloride (20 μg/kg, i.v.). The change (cm H2 O) between pre and peak ventilatory pressure readings is averaged for three control animals and five drug treated animals. The percent inhibition is calculated from the following formula: (Control-Drug Treated/Control)×100.

[2] = tested on: SRS-A induced contraction of guinea pig ileum; assay: In vitro SRS-A antagonism; conditions: 30 seconds pretreatment
Description: (j) In vitro SRS-A Antagonism
SRS-A was determined by bioassay on the guinea pig ileum using a modification of the method described by Orange et al., Adv. Immunol., 1969, 10, 105. A 1.5 cm segment of the ileum, obtained from male guinea pigs (175-200 g), was suspended in an organ bath containing Tyrodes solution with 10^-6 M atropine sulfate and 10^-6 M pyrilamine maleate. The bath was maintained at 37° C. and gassed with a mixture of 95 percent oxygen and 5 percent carbon dioxide. The ileum was attached to a strain gauge transducer and isotonic contractions recorded by a strip chart recorder. A resting tension of 0.5 g was applied and the tissue allowed to equilibrate for 1 hour.
The SRS-A used in these studies was obtained by challenging a large quantity of chopped lung fragments from actively sensitized guinea pigs with egg albumin in vitro. The animals were sensitized to egg albumin by an intraperitoneal injection of the antigen (1 ml of 10 mg/ml) in saline 28 to 45 days prior to challenge. The in vitro challenge was carried out by first preincubating the lung tissue (40 mg/ml) at 37° C. in Tyrodes solution for 5 minutes, adding the egg albumin ([…] final concentration) to the fragments and after a 10 minute challenge, separating the media containing the SRS-A from the lung tissue by filtration on Whatman #1 filter paper. The concentration of SRS-A in the filtrate was calibrated by comparison of the contraction amplitude elicited in the bioassay system by a given volume of the supernatant with contractions obtained by varying concentrations of histamine. One unit of SRS-A is equivalent to that quantity which will give the same contraction as 5 ng of histamine. After standarization, the SRS-A was stored in small aliquots at -80° C. for further use. […] SRS-A antagonism was determined by pretreating the ileum with drug for 30 seconds prior to the addition of a concentration of SRS-A which have a submaximal response, determination of the amplitude of contraction elicited in the presence of drug and then washing the ileum with Tyrodes. […]

SMILES	ED50 (PAF induced mortality; Mus musculus, Platelet, oral, read-out: oral ID50 (Inhibiting Dose), PAF induced mortality)	prevention of PAF induced mortality (PAF induced mortality)	ED50 [1]	IC50 [2]
CC(C)c1ccc2nc3ccc(C(=O)NCCCCCCc4cccnc4)cn3c(=O)c2c1 [Compound C, 2-(1-Methylethyl)-N-[6-(3-pyridyl)hexyl]-11-oxo-11H-pyrido[2,1-b]quinazoline-8-carboxamide]	13 mg/kg	prevented PAF induced mortality	–	–
CC(C)c1ccc2nc3ccc(C(=O)NCCCCn4ccnc4)cn3c(=O)c2c1 [Compound A, N-[4-(1H-imidazol-1-yl)butyl]-2-(1-methylethyl)-11-oxo-11H-pyrido[2,1-b]quinazoline-8-carboxamide]	–	–	39 mg/kg	1 µM
CC(C)c1ccc2nc3ccc(C(=O)NCCCCc4cccnc4)cn3c(=O)c2c1 [Compound B, 2-(1-methylethyl)-N-[4-(3-pyridyl)butyl]-11-oxo-11H-pyrido[2,1-b]quinazoline-8-carboxamide]	–	–	–	1 µM
